In the supplement of paper PMC10883282:
Structures can show the parent of a compound that is named as a salt. ± gives the standard deviation of the averaged measurements.

System: G401
Assay: relative viability vs DMSO control (72 h) (fraction); higher = more viable cells
Procedure, shortened: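 Relative viability was measured with ATPLite and expressed as percent growth, averaged across up to triplicate wells. Sarcoma cell lines had been seeded in 384-well plates to reach 80–90% confluence, dosed after 24 h, and incubated 72 h at 37 °C, 5% CO2. All data were rescaled on a scale where 1 is full and 0 is none.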

Row | Compound | relative viability (0.00017 µM) | relative viability (0.00051 µM) | relative viability (0.00152 µM) | relative viability (0.00457 µM) | relative viability (0.01372 µM) | relative viability (0.04115 µM) | relative viability (0.1235 µM) | relative viability (0.3704 µM) | relative viability (1.111 µM) | relative viability (3.333 µM) | relative viability (10 µM) | relative viability (2 pM) | relative viability (5 pM) | relative viability (15 pM) | relative viability (50 pM) | relative viability (0.00014 µM) | relative viability (0.00041 µM) | relative viability (0.0012 µM) | relative viability (0.0037 µM) | relative viability (0.011 µM) | relative viability (200 fM) | relative viability (600 fM)
1 | Cc1ccc(F)c(NC(=O)Nc2ccc(-c3cccc4[nH]nc(N)c34)cc2)c1 [Linifanib] | 1.03 ± 0.045 | 1.03 ± 0.087 | 0.996 ± 0.021 | 1.02 ± 0.02 | 1.01 ± 0.064 | 0.994 ± 0.01 | 0.956 ± 0.031 | 0.956 ± 0.048 | 0.928 ± 0.04 | 0.915 ± 0.013 | 0.9524 ± 0.0058 |  |  |  |  |  |  |  |  |  |  | 
2 | CC(C)N1CCN(Cc2cnc(-c3cc(-c4cccc5[nH]ccc45)cc4[nH]ncc34)o2)CC1 [Nemiralisib] | 0.962 ± 0.043 | 0.933 ± 0.035 | 0.883 ± 0.015 | 0.921 ± 0.033 | 0.904 ± 0.035 | 0.911 ± 0.048 | 0.916 ± 0.013 | 0.877 ± 0.01 | 0.833 ± 0.021 | 0.735 ± 0.026 | 0.609 ± 0.012 |  |  |  |  |  |  |  |  |  |  | 
3 | COCc1c(-c2cc3cc(C)cc(OC)c3s2)c2c(N)ncnn2c1CN1CCNC(=O)C1 [Rogaratinib] | 1.05 ± 0.015 | 1.06 ± 0.037 | 1.02 ± 0.031 | 1.01 ± 0.011 | 1.018 ± 0.0054 | 0.967 ± 0.038 | 0.8878 ± 0.0073 | 0.68 ± 0.015 | 0.592 ± 0.024 | 0.532 ± 0.043 | 0.375 ± 0.0068 |  |  |  |  |  |  |  |  |  |  | 
4 | Cc1cc(Nc2ncnc3ccc(NC4=NC(C)(C)CO4)cc23)ccc1Oc1ccn2ncnc2c1 [Tucatinib] | 1.03 ± 0.042 | 1.04 ± 0.039 | 1.02 ± 0.04 | 1.02 ± 0.037 | 1.01 ± 0.037 | 0.985 ± 0.036 | 1.02 ± 0.026 | 1.01 ± 0.026 | 1.01 ± 0.035 | 0.984 ± 0.025 | 0.985 ± 0.031 |  |  |  |  |  |  |  |  |  |  | 
5 | O=C(Nc1cnn2ccc(N3CCC[C@@H]3c3cc(F)ccc3F)nc12)N1CC[C@H](O)C1 [Larotrectinib] | 1.032 ± 0.0041 | 1.03 ± 0.016 | 1.021 ± 0.0029 | 1.04 ± 0.033 | 1.04 ± 0.03 | 1.01 ± 0.019 | 1.02 ± 0.028 | 1 ± 0.014 | 1 ± 0.048 | 0.97 ± 0.025 | 0.916 ± 0.034 |  |  |  |  |  |  |  |  |  |  | 
6 | CN1CCC(COc2cnc(-c3cccc(Cn4nc(-c5cccc(C#N)c5)ccc4=O)c3)nc2)CC1 [Tepotinib] | 1.02 ± 0.014 | 1.02 ± 0.015 | 1.012 ± 0.01 | 1.003 ± 0.0083 | 1.04 ± 0.018 | 1.04 ± 0.057 | 1.02 ± 0.013 | 1.01 ± 0.029 | 1 ± 0.015 | 0.9287 ± 0.0054 | 0.787 ± 0.02 |  |  |  |  |  |  |  |  |  |  | 
7 | C[C@@H]1CCN(C(=O)CC#N)C[C@@H]1N(C)c1ncnc2[nH]ccc12 [Tofacitinib] | 1.07 ± 0.026 | 1.044 ± 0.0027 | 1.06 ± 0.027 | 1.02 ± 0.015 | 1.05 ± 0.012 | 1.05 ± 0.026 | 1.03 ± 0.035 | 1.07 ± 0.048 | 1.04 ± 0.045 | 1.06 ± 0.056 | 1.06 ± 0.037 |  |  |  |  |  |  |  |  |  |  | 
8 | N#CC[C@H](C1CCCC1)n1cc(-c2ncnc3[nH]ccc23)cn1 [Ruxolitinib] | 0.971 ± 0.051 | 1.01 ± 0.037 | 1.01 ± 0.034 | 1 ± 0.026 | 1.02 ± 0.02 | 0.969 ± 0.039 | 0.99 ± 0.024 | 0.935 ± 0.047 | 0.942 ± 0.035 | 0.936 ± 0.025 | 0.824 ± 0.034 |  |  |  |  |  |  |  |  |  |  | 
9 | C=CC(=O)N1CCC[C@@H](n2nc(-c3ccc(Oc4ccccc4)cc3)c3c(N)ncnc32)C1 [Ibrutinib] | 1.03 ± 0.025 | 1.03 ± 0.095 | 1.03 ± 0.037 | 1.01 ± 0.0057 | 1.01 ± 0.025 | 1.05 ± 0.013 | 0.998 ± 0.072 | 0.995 ± 0.05 | 1.02 ± 0.013 | 0.922 ± 0.045 | 0.668 ± 0.049 |  |  |  |  |  |  |  |  |  |  | 
10 | COc1c(OCCCN2CCOCC2)ccc2c1N=C(NC(=O)c1cnc(N)nc1)N1CCN=C21 [Copanlisib] | 1.024 ± 0.0087 | 1 ± 0.024 | 0.959 ± 0.039 | 0.7934 ± 0.0059 | 0.702 ± 0.018 | 0.582 ± 0.033 | 0.537 ± 0.037 | 0.499 ± 0.043 | 0.476 ± 0.047 | 0.468 ± 0.02 | 0.477 ± 0.044 |  |  |  |  |  |  |  |  |  |  | 
11 | COc1cccc2c1C(=O)c1c(O)c3c(c(O)c1C2=O)C[C@@](O)(C(=O)CO)C[C@@H]3O[C@H]1C[C@H](N)[C@H](O)[C@H](C)O1 [Doxorubicin Hydrochloride] | 1.03 ± 0.011 | 1.02 ± 0.018 | 1 ± 0.041 | 0.937 ± 0.021 | 0.8493 ± 0.0066 | 0.681 ± 0.019 | 0.476 ± 0.041 | 0.079 ± 0.017 | 0.0407 ± 0.0027 | 0.096 ± 0.0082 | 0.101 ± 0.0054 |  |  |  |  |  |  |  |  |  |  | 
12 | CO[C@H]1C[C@@H]2CC[C@@H](C)[C@@](O)(O2)C(=O)C(=O)N2CCCC[C@H]2C(=O)O[C@H]([C@H](C)C[C@@H]2CC[C@@H](OP(C)(C)=O)[C@H](OC)C2)CC(=O)[C@H](C)/C=C(\C)[C@@H](O)[C@@H](OC)C(=O)[C@H](C)C[C@H](C)/C=C/C=C/C=C/1C [Ridaforolimus] | 0.919 ± 0.043 | 0.885 ± 0.03 | 0.841 ± 0.071 | 0.793 ± 0.068 | 0.751 ± 0.07 | 0.739 ± 0.056 | 0.744 ± 0.027 | 0.725 ± 0.019 | 0.712 ± 0.012 | 0.681 ± 0.017 | 0.645 ± 0.022 |  |  |  |  |  |  |  |  |  |  | 
13 | COc1cc2nccc(Oc3ccc(NC(=O)Nc4cc(C)on4)c(Cl)c3)c2cc1OC [Tivozanib] | 1.01 ± 0.025 | 1.03 ± 0.035 | 1.04 ± 0.025 | 1.04 ± 0.019 | 1.04 ± 0.023 | 0.98 ± 0.044 | 0.992 ± 0.056 | 0.99 ± 0.021 | 0.965 ± 0.034 | 0.713 ± 0.019 | 0.381 ± 0.0095 |  |  |  |  |  |  |  |  |  |  | 
14 | C[C@@H](c1ccc2nccn2c1)n1nnc2ncc(-c3cnn(C)c3)nc21 [Volitinib] | 1.01 ± 0.029 | 1.01 ± 0.042 | 1.03 ± 0.035 | 1.04 ± 0.044 | 1 ± 0.018 | 1.03 ± 0.019 | 1.03 ± 0.015 | 1.04 ± 0.046 | 1.03 ± 0.049 | 0.987 ± 0.026 | 0.955 ± 0.025 |  |  |  |  |  |  |  |  |  |  | 
15 | COc1cc2c(cc1O)CCN[C@]21CS[C@@H]2c3c(OC(C)=O)c(C)c4c(c3[C@H](COC1=O)N1[C@@H]2[C@H]2c3c(cc(C)c(OC)c3O)C[C@@H]([C@@H]1O)N2C)OCO4 [Trabectedin] |  |  |  |  |  |  |  |  |  |  |  | 1.03 ± 0.017 | 1.02 ± 0.025 | 0.993 ± 0.018 | 0.991 ± 0.014 | 0.832 ± 0.043 | 0.516 ± 0.024 | 0.0964 ± 0.077 | 0.126 ± 0.016 | 0.0862 ± 0.0056 | 1.05 ± 0.032 | 1.03 ± 0.04
16 | Cc1nc(-c2cn3c(n2)-c2ccc(-c4cnn(C(C)(C)C(N)=O)c4)cc2OCC3)n(C(C)C)n1 [Taselisib] | 0.995 ± 0.022 | 0.968 ± 0.045 | 0.969 ± 0.032 | 0.923 ± 0.011 | 0.866 ± 0.019 | 0.7976 ± 0.0064 | 0.68 ± 0.03 | 0.592 ± 0.027 | 0.499 ± 0.021 | 0.439 ± 0.019 | 0.347 ± 0.018 |  |  |  |  |  |  |  |  |  |  | 
17 | COc1cc2c(Oc3ccc4[nH]c(C)cc4c3F)ncnc2cc1OCCCN1CCCC1 [Cediranib] | 0.97 ± 0.055 | 1.03 ± 0.015 | 0.993 ± 0.031 | 0.981 ± 0.059 | 0.995 ± 0.029 | 1.01 ± 0.024 | 0.95 ± 0.024 | 0.828 ± 0.013 | 0.47 ± 0.019 | 0.273 ± 0.02 | 0.00627 ± 0.0033 |  |  |  |  |  |  |  |  |  |  | 
18 | Cc1nc(NC(=O)N2CCC[C@H]2C(N)=O)sc1-c1ccnc(C(C)(C)C(F)(F)F)c1 [Alpelisib] | 1 ± 0.066 | 1.01 ± 0.04 | 0.993 ± 0.041 | 0.946 ± 0.075 | 0.939 ± 0.017 | 0.906 ± 0.079 | 0.864 ± 0.021 | 0.777 ± 0.036 | 0.697 ± 0.07 | 0.577 ± 0.053 | 0.504 ± 0.052 |  |  |  |  |  |  |  |  |  |  | 
19 | COc1cc2/c(=N/c3ccc(Br)cc3F)nc[nH]c2cc1OCC1CCN(C)CC1 [Vandetanib] | 0.983 ± 0.019 | 0.98623 ± 0.00074 | 0.989 ± 0.019 | 0.99 ± 0.028 | 0.993 ± 0.025 | 0.968 ± 0.025 | 0.971 ± 0.015 | 0.988 ± 0.033 | 0.87 ± 0.013 | 0.736 ± 0.0092 | 0.0218 ± 0.0004 |  |  |  |  |  |  |  |  |  |  | 
